We go through 6 molecules from patent publication US20200223894A1, “PEPTIDES FOR THE TREATMENT OF CONDITIONS ASSOCIATED WITH ADIPONECTIN DYSFUNCTION” (AUCKLAND UNISERVICES LIMITED, priority 2017, published 2020).

The test system of experiment [1] is C57/BL6 mice fed a standard chow diet (STC) or high fat diet (HFD). The experiment is described as follows: Four-week chronic peptide treatment of mice on STC or HFD: insulin sensitivity and energy homeostasis. Conditions: 5 mg/kg/day i.p., four weeks; for HFD-induced hyperglycemia (fasting glucose levels): 16-hours fasting. Format: in vivo, mouse. How it is done: (§1) All experimental protocols were approved by the Committee on the Use of Live Animals for Teaching and Research of the University of Hong Kong and carried out in accordance with ARRIVE (Animal Research: Reporting of In Vivo Experiments) as well as institutional guidelines for the care and use of laboratory animals. Mice of the C57BL/6J background were housed in a room under controlled temperature (23±1° C.) with 12 hour light-dark cycles and free access to water and food. Mice were fed with either standard chow (STC; 3.07 kcal/g, LabDiet 5053, Purina Mills, Richmond, Ind., USA) or high-fat diet (HFD; 4.73 kcal/g containing 45% fat, 20% protein and 35% carbohydrate, D12451, Research diet, N.J., USA) starting from four-weeks old.
(§2) Mice were administered intraperitoneally with the peptides described in Table 2 (10 mg/kg body weight for acute studies at 16-weeks old or 5 mg/kg/day for four-week chronic treatment at 12-weeks old). Body weights of the animals were monitored on a weekly basis. Fasting blood glucose was determined after 16-hours food starvation (from 6:00 pm to 10:00 am) by a Accu-Check Advantage II Glucometer (Roche Diagnostics Mannheim, Germany). Fasting body fat mass was determined by the minispec Body Composition Analyzer (Bruker Optics Inc., Tex., USA). Circulating and tissue contents of lipids, including triglycerides and total cholesterols, were analyzed using LiquiColor® Triglycerides and Stanbio Cholesterol assay kits, respectively. Serum adiponectin concentrations were determined with an in-house ELISA kit as described (Wang et al., 2006 J Biol Chem 281: 16391-16400). Serum insulin levels were measured with an in-house mouse insulin ELISA kit (Cat No. 32100, http://www.pharma.hku.hk/sweb/antibody/ELISA.php). Homeostatic Model Assessment of
Insulin Resistance (HOMA-IR) was calculated as fasting insulin (μU/ml)×fasting glucose (mmol/L)/22.5 for comparison as described (Xu et al., 2013). All results were compared between mice treated with control and CPP peptides.

In a further experiment the test system is 3T3-L1 adipocytes. The experiment is described as follows: Adiponectin levels and oligomeric distribution in conditioned media and cell lysate of peptide-treated adipocytes (Western blotting). Conditions: for amount of HMW adiponectin in the cell lysate / sub-population of the hexametric adiponectin in the cell lysate: compared to IgM-derived cargo peptides; for HMW adiponectin level in conditioned media / hexamer adiponectin level in conditioned media / trimeric adiponectin level in conditioned media: non-reducing SDS-PAGE. It counts as cell-based, murine. On the procedure:
3T3-L1 cells (ATCC #CL-173, Manassas, Va., USA) were cultured in Dulbecco's Modified Eagle Medium (DMEM) supplemented with 10% fetal bovine serum (FBS) and 1% penicillin-streptomycin-fungisone (PSF) at 37° C. and under 5% CO2 95% humidified air. For differentiation, the confluent 3T3-L1 cultures were supplemented with 10 μg/ml insulin, 0.25 μM dexamethasone and 0.5 mM isobutylmethylxanthine for two days, followed by incubation with 10 μg/ml insulin in the culture medium for another two days. Subsequently, cells were incubated in DMEM with 10% FBS that was changed every two days. Peptide treatment (200 nM in FBS-free medium) was performed in fully differentiated 3T3-L1 adipocyte cultures. After incubation for 24 h, cell lysates and the conditioned medium were collected for subsequent analyses.
(§3) Cells or adipose tissues were washed with phosphate buffer (137 mM NaCl, 2.7 mM KCl, 4.3 mM Na2HPO4, 1.47 mM KH2PO4, pH 7.4) and then solubilized in lysis buffer (25 mM Tris-HCl pH 7.5, 150 mM NaCl, 5 mM NaF, 1% sodium deoxycholate, 1% Nonidet P-40, 1% Triton X-100 plus protease inhibitor mixtures). Equal amounts of lysates (100 μg) were precleared with protein G (Thermo Fisher Scientific, Waltham, Mass., USA) and incubated overnight with specific antibodies at 4° C. with shaking.
(§4) After incubating with protein G for another four hours, the immune-complexes were precipitated by low-speed centrifugation, washed three times with lysis buffer, and eluted in SDS-PAGE sample buffer (50 mM Tris-HCl pH 6.8, 1% SDS, 5% glycerol, 3% β-mercaptomethanol, 0.01% bromophenal blue) or 0.1 M glycine HCl (pH 3.0) and then diluted with non-reducing sample buffer (1% SDS, 5% glycerol, 10 mM Tris-HCl pH6.8) for analyzing adiponectin monomers and oligomers by Western blotting.
Cell lysates, media or serum samples were incubated with non-reducing sample buffer at room temperature for 10 minutes and then separated by 4-20% gradient SDS-PAGE. After transferring to polyvinylidene difluoride (PVDF) membranes, immunoblotting was performed using an in-house antibody against murine adiponectin developed by Antibody and Immunoassay Services, HKU (http://www.pharma.hku.hk/sweb/antibody/PolyclonalAntibodyCont.php?polyclonal_no=60 0005), or antibodies against ERp44 (Santa Cruz Biotechnology, Santa Cruz, Calif.), DsbA-L (Abcam, Cambridge, Mass., USA). Protein bands were quantified by ImageJ and intensities were compared. All experiments were repeated at least six times.
(In general: A western blot detects proteins with antibodies after separation by electrophoresis.)

Experiment [2] relates to C57/BL6 mice fed a high fat diet. Briefly: Serum total and HMW adiponectin in high fat diet mice after acute peptide injection. It counts as in vivo, mouse. Conditions: HFD mice, 10 mg/kg i.p.; for HMW form of adiponectin in serum: normalized to corresponding cargo peptide. How it is done: as §1
Immunoprecipitation and Western blotting studies were performed on serum adipose tissue samples obtained from mice as described above in Example 2. The serum was collected 24 hours after injection.
as §2, with “Assessment of […]” for “Assessment of”

In experiment [3] the target is T1, ERp44-adiponectin interaction (Mus musculus, UniProt Q9D1Q6).
T1 construct: from tissue; host or cells: adipose tissue of C57BL/6J mice on a high-fat diet, treated i.p. with the peptides
T1 sequence (Q9D1Q6 30-406): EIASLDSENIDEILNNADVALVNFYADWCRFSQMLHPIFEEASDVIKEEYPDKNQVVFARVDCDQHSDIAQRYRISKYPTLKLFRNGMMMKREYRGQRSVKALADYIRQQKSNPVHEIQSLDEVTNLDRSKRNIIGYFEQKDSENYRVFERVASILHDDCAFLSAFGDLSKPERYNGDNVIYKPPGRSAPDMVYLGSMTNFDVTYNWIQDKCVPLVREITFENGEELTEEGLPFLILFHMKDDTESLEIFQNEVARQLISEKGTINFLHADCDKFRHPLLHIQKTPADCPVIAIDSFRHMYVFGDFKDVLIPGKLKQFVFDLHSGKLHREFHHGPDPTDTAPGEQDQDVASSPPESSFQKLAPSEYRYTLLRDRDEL
Briefly: ERp44-adiponectin interaction in mouse adipose tissue lysates by co-immunoprecipitation. Format: in vivo. Conditions: HFD mice. On the procedure: as §3, §4
Cell lysates, media or serum samples were incubated with non-reducing sample buffer at room temperature for 10 minutes and then separated by 4-20% gradient SDS-PAGE. […] Protein bands were quantified by ImageJ and intensities were compared. […]

The target of experiment [4] is T2, Recombinant mouse ERp44 (murine ERp44 without the signal sequence, monomeric fraction) (mouse, UniProt Q9D1Q6 30-406).
T2 construct: mature; Cloned into pET28b at the NheI and XhoI sites and expressed in E. coli; The monomer fraction from Superdex-200 was used; Free ERp44 is observed at 46,074 amu in ESI-MS; also called recombinant ERp44
T2 sequence (looked up): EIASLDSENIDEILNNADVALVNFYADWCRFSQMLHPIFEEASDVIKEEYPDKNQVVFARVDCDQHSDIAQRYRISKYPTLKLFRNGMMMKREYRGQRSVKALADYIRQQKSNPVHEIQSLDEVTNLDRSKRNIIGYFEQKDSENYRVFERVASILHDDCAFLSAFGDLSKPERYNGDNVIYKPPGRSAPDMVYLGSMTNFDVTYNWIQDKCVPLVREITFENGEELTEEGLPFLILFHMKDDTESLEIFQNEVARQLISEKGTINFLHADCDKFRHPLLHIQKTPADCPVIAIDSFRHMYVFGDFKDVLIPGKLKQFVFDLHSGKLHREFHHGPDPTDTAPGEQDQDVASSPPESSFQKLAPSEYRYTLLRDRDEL
The experiment is described as follows: ESI-MS of ERp44 (43 uM) incubated with 10-fold excess peptide (430 uM), 4 days, pH 6.5; disulfide-linked complex.

Experiment [5] has as its target T2, Recombinant mouse ERp44 (murine ERp44 …). The experiment is described as follows: ESI-MS, recombinant mouse ERp44 43 uM with 430 uM peptide, 4 days.
[6] abbreviates: 200 nM peptide, 24 h, cell lysate.
Where [7] appears, read: 200 nM peptide, 24 h, conditioned media, vs corresponding non-CPP cargo peptide.
[8] abbreviates: serum 24 hours after injection, vs corresponding cargo peptide only group.

With YGRKKKRRQQRRRDTGGTCY [CPP-M2], in experiment [1], the “HFD-induced insulin resistance (calculated HOMA-IR)” value is given as “significantly blocked”, the “HFD-induced reduction of adiponectin concentrations in serum” value is recorded as “prevented the reduction”, the circulating cholesterol levels result is on record as “significantly reduced” and the circulating triglyceride levels result is “significantly reduced”. For the same molecule, in experiment [1], the “lipid (triglyceride) accumulation in livers” value was “attenuated” and the “HFD-induced hyperglycemia (fasting glucose levels)” value was “significantly blocked”. For the same molecule, the intracellular adiponectin levels entry in the experiment with 3T3-L1 adipocytes (setting [6]) was “decreased”. Moreover, the “increase in total amount of adiponectin secreted in the media” value in the experiment with 3T3-L1 adipocytes (setting [7]) is reported as ~53%. Further, in the experiment on 3T3-L1 adipocytes (200 nM, cell lysate), the “amount of HMW adiponectin in the cell lysate” value was “significantly increased” and the “sub-population of the hexametric adiponectin in the cell lysate” value is on record as “decreased”. Besides, in the experiment on 3T3-L1 adipocytes (200 nM, conditioned media), the “HMW adiponectin level in conditioned media” value (shortened to “HMW adiponectin level”) is recorded as “significantly elevated”, the “hexamer adiponectin level in conditioned media” value is “significantly elevated” and the “trimeric adiponectin level in conditioned media” value (“trimeric adiponectin level” for short) was “significantly elevated”. Moreover, the “increase in circulating concentration of adiponectin” value in experiment [2] (setting [8]) is ~34%. In addition, the “HMW form of adiponectin in serum” value in experiment [2] was “increased”.

Regarding YGRKKKRRQQRRRGTCY [CPP-M1], in experiment [1], the “HFD-induced insulin resistance (calculated HOMA-IR)” value is “significantly blocked”, the “HFD-induced reduction of adiponectin concentrations in serum” value was “prevented the reduction”, the circulating cholesterol levels result is on record as “significantly reduced” and the circulating triglyceride levels entry is listed as “significantly reduced”. In experiment [1], the “lipid (triglyceride) accumulation in livers” value is “attenuated” and the “HFD-induced hyperglycemia (fasting glucose levels)” value was “significantly blocked”. Moreover, in experiment [1] (compared to M1 cargo peptide), the “body fat mass under HFD” value is recorded as “significantly decreased”. In the experiment on 3T3-L1 adipocytes (setting [6]), the intracellular adiponectin levels result is listed as “decreased”. The “increase in total amount of adiponectin secreted in the media” value in the experiment with 3T3-L1 adipocytes (setting [7]) is recorded as ~45%. For the same molecule, in the experiment on 3T3-L1 adipocytes (200 nM, cell lysate), the “amount of HMW adiponectin in the cell lysate” value is on record as “significantly increased” and the “sub-population of the hexametric adiponectin in the cell lysate” value is “decreased”. In addition, in the experiment on 3T3-L1 adipocytes (200 nM, conditioned media), the “HMW adiponectin level” value is “significantly elevated”, the “hexamer adiponectin level in conditioned media” value is “significantly elevated” and the “trimeric adiponectin level” value is reported as “significantly elevated”. In experiment [2] (setting [8]), the “increase in circulating concentration of adiponectin” value is ~28%. The “HMW form of adiponectin in serum” value in experiment [2] is reported as “increased”.

For YGRKKRRQQRRRKGTCAGWMA [CPP-adiponectin], in experiment [3], the “amount of adiponectin bound to ERp44 in mouse adipose tissue” value is reported as “significantly decreased”. Moreover, the intracellular adiponectin levels entry in the experiment on 3T3-L1 adipocytes (setting [6]) is “increased”. The “reduction of total amount of adiponectin in the conditioned media” value with 3T3-L1 adipocytes (setting [7]) is ~16%. Besides, the “oligomeric composition of adiponectin in the cell lysate” value with 3T3-L1 adipocytes (200 nM, cell lysate) is “shifted towards the trimer”. For the same molecule, in the experiment with 3T3-L1 adipocytes (200 nM, conditioned media), the “HMW adiponectin level” value is given as “significantly reduced” and the “trimeric adiponectin level” value was “significantly reduced”. In experiment [2] (setting [8]), the “decrease in circulating concentration of adiponectin” value was ~14%. In experiment [2], the “HMW form of adiponectin in serum” value was “significantly decreased”.

In the case of KGTCAGWMA (also called adiponectin derived peptide) [Adiponectin peptide (adiponectin-derived cargo peptide KGTCAGWMA)], the binding result in experiment [4] was “binds”.

Take DTGGTCY [M2 (IgM-derived cargo peptide DTGGTCY)]: the binding result in experiment [5] was “binds”.

In the case of GTCY [M1 (IgM-derived cargo peptide GTCY)], the binding result in experiment [4] is listed as “binds”.
